Source: article PMC7321065, “Discovery of New Schiff Bases Tethered Pyrazole Moiety: Design, Synthesis, Biological Evaluation, and Molecular Docking Study as Dual Targeting DHFR/DNA Gyrase Inhibitors with Immunomodulatory Activity” (Molecules, 2020)

What was measured:
Pseudomonas aeruginosa = assay: Inhibition zone, agar plate diffusion; type: cell-based; conditions: Pa, mm ± standard deviation, sample at 0.5 mg/mL, read-out: Inhibition zone (IZ)
Protocol: (§1) Antimicrobial activities of the newly formed Schiff bases (6a–d, 7a–d, 8a–d, and 9a–d) and reference drugs were evaluated against three Gram-positive, three Gram-negative, and two fungi strain at Al-Azhar University, Cairo, Egypt. The inhibition zones (IZ, in mm ± standard deviation) and the minimal inhibitory concentration (MIC) (μg/mL) were determined by the conventional paper disk diffusion method.
(§2) In Vitro Antimicrobial Activities
(§3) The antimicrobial activities inhibition zone (IZ, mm±standard deviation) of pyrazole Schiff bases ( 6a-d , 7a-d, 8a-d and 9a-d ) was measurement according to the agar plate diffusion method. Briefly, 100 µl of the […]
(§4) […] of each sample (at 0.5 mg/mL) was added to each well (10 mm diameter holes cut in the agar gel). The plates were incubated for 24 h at 37 °C (for bacteria and yeast) and for 72 h at 27 °C (for filamentous fungi), each test was repeated three times. After incubation, the microorganism's growth was observed. […]
(§5) drugs while Amphotericin B was used as standard antifungal drug. The resulting inhibition zone diameters were measured in millimeters and used as criterion for the antimicrobial activity. Solvent controls (DMSO) were included in every experiment as negative controls. DMSO was used for dissolving […]
(§6) the tested microorganisms. […]

Bacillus subtilis = assay: Inhibition zone, agar plate diffusion; type: cell-based; conditions: Bs, mm ± standard deviation, sample at 0.5 mg/mL, read-out: Inhibition zone (IZ)
Protocol: as §1, §2, §3, §4, §5, §6

Escherichia coli = assay: Inhibition zone, agar plate diffusion; type: cell-based; conditions: Ec, mm ± standard deviation, sample at 0.5 mg/mL, read-out: Inhibition zone (IZ)
Protocol: as §1, §2, §3, §4, §5, §6

Enterococcus faecalis = assay: Inhibition zone, agar plate diffusion; type: cell-based; conditions: Ef, mm ± standard deviation, sample at 0.5 mg/mL, read-out: Inhibition zone (IZ)
Protocol: as §1, §2, §3, §4, §5, §6

Salmonella typhi = assay: Inhibition zone, agar plate diffusion; type: cell-based; conditions: Salmonella enterica, St, mm ± standard deviation, sample at 0.5 mg/mL, read-out: Inhibition zone (IZ)
Protocol: as §1, §2, §3, §4, §5, §6
(§7) Bacteria were grown on nutrient agar medium, while fungi and yeast were grown on Sabouraud agar medium. […]

Fusarium oxysporum = assay: Inhibition zone, agar plate diffusion; type: cell-based; conditions: Fo, mm ± standard deviation, sample at 0.5 mg/mL, read-out: Inhibition zone (IZ)
Protocol: as §1, §2, §3, §4, §5, §6, §7

Staphylococcus aureus = assay: Inhibition zone, agar plate diffusion; type: cell-based; conditions: Sa, mm ± standard deviation, sample at 0.5 mg/mL, read-out: Inhibition zone (IZ)
Protocol: as §1, §2, §3, §4, §5, §6, §7

Candida albicans = assay: Inhibition zone, agar plate diffusion; type: cell-based; conditions: Ca, mm ± standard deviation, sample at 0.5 mg/mL, read-out: Inhibition zone (IZ)
Protocol: as §1, §2, §3, §4, §5, §6, §7

Structure (SMILES)	zone of inhibition at 500 µg/mL (Pseudomonas aeruginosa) [mm]	zone of inhibition at 500 µg/mL (Bacillus subtilis) [mm]	zone of inhibition at 500 µg/mL (Escherichia coli) [mm]	zone of inhibition at 500 µg/mL (Enterococcus faecalis) [mm]	zone of inhibition at 500 µg/mL (Salmonella typhi) [mm]	zone of inhibition at 500 µg/mL (Fusarium oxysporum) [mm]	zone of inhibition at 500 µg/mL (Staphylococcus aureus) [mm]	zone of inhibition at 500 µg/mL (Candida albicans) [mm]	melting point [°C]
COc1ccc(Nc2n[nH]c(N=Cc3c(C)nn(-c4ccccc4)c3Cl)c2C(N)=O)cc1 [7a, 5-((5-Chloro-3-methyl-1-phenyl-1H-pyrazol-4-yl)methyleneamino)-3-(p-methoxyphenylamino)-1H-pyrazole-4-carboxamide]	20 ± 0.15	20 ± 0.4	18 ± 0.2	21 ± 0.11	18 ± 0.16	15 ± 0.3	19 ± 0.31	13 ± 0.35	270 to 272
COc1ccc(Nc2n[nH]c(N=Cc3cc(OC)c(OC)c(OC)c3)c2C(=O)Nc2ccc(Cl)cc2)cc1 [9d, N-(p-Chlorophenyl)-3-(p-methoxyphenylamino)-5-(3,4,5-trimethoxybenzylideneamino)-1H-pyrazole-4-carboxamide]	< 8	18 ± 0.12	15 ± 0.96	< 8	12 ± 0.61	14 ± 0.38	16 ± 0.54	18 ± 0.2	213 to 215
COc1ccc(Nc2n[nH]c(N=Cc3c(C)n(C)n(-c4ccccc4)c3=O)c2C(N)=O)cc1 [6a, 5-((1,5-Dimethyl-3-oxo-2-phenyl-2,3-dihydro-1H-pyrazol-4-yl)methyleneamino)-3-(p-methoxyphenylamino)-1H-pyrazole-4-carboxamide]	20 ± 0.15	21 ± 0.4	24 ± 0.2	21 ± 0.11	18 ± 0.16	13 ± 0.3	25 ± 0.31	22 ± 0.35	274 to 276
